Test results as given in patent publication US9233979B2, “Compounds that are ERK inhibitors” (Merck Sharp & Dohme Corp., priority 2012, dated 2016).
Where two headings read alike, the source gives them in different places.

Biological target: phosphorylated active hERK2 enzyme (Homo sapiens (Human), UniProt P28482)
Assay: Active Human ERK2 (hERK2) Activity Assay (IMAP-FP)
Format: biochemical
Conditions: 10 point titration, read-out: AERK2 IC50
Procedure, shortened: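 IMAP fluorescence-polarization kinase assay: 0.5 nM activated hERK2 with 900 nM unlabeled plus 80 nM labeled peptide and 30 μM ATP, reacted 60 min. Quenched with IMAP beads in binding buffer with 24 mM NaCl; FP read after 60 min equilibration.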

[1] = Table 6, 0.5 nM hERK2, 30 μM ATP
[2] = Table 5, 0.5 nM hERK2, 30 μM ATP

Sequence of phosphorylated active hERK2 enzyme (P28482 whole entry): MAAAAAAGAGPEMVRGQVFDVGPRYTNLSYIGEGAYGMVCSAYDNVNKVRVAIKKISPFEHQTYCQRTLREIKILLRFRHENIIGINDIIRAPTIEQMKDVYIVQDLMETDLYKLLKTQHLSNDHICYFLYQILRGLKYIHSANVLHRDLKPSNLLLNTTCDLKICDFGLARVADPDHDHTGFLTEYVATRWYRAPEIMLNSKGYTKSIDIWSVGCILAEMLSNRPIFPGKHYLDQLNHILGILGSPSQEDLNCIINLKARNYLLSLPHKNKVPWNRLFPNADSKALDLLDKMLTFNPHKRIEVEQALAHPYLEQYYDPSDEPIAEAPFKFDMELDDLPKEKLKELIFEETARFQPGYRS

Which IC50 [1] does the source give for `COC[C@@H](NC(=O)Nc1cc2[nH]nc(NC(=O)C(C)C)c2cn1)c1ccccc1` [Example 319, (S)-N-(6-(3-(2-methoxy-1-phenylethyl)ureido)-1H-pyrazolo[4,3-c]pyridin-3-yl)-isobutyramide] here?
The IC50 was 0.4 nM.

For `CCNc1n[nH]c2cc(NC(=O)N[C@H](C)c3ccc(Cl)c(C)c3)ncc12` [Example 252, 1-[(1R)-1-(4-chloro-3-methyl-phenyl)ethyl]-3-[3-(ethylamino)-1H-pyrazolo[4,3-c]-pyridin-6-yl]urea], which IC50 [1] is on record?
Its IC50 is 2 nM.

How did the IC50 [1] turn out when `COC(=O)Nc1n[nH]c2cc(NC(=O)N[C@@H](c3ccccc3)C3(O)CCC3)ncc12` [Example 385, methyl [6-({[(S)-(1-hydroxycyclo-butyl)(phenyl)-methyl]carbamoyl}amino)-1H-pyrazolo[4,3-c]-pyridin-3-yl]-carbamate] was run?
Its IC50 is 2 nM.

With `CCNc1n[nH]c2cc(NC(=O)N[C@@H](c3ccccc3)C(C)(C)OC)ncc12` [Example 431, 1-[3-(ethylamino)-1H-pyrazolo[4,3-c]pyridin-6-yl]-3-[(1S)-2-methoxy-2-methyl-1-phenylpropyl]urea] as the compound, how does the IC50 [1] read?
Its IC50 is 0.5 nM.

Which IC50 [1] does the source give for `CC(Nc1n[nH]c2cc(NC(=O)N[C@H](COC(F)F)c3ccccc3)ncc12)C(F)(F)F` (stereo partly drawn) [Example 428, 1-[(1S)-2-(difluoromethoxy)-1-phenylethyl]-3-{3-[(2,2,2-trifluoro-1-methylethyl)-amino]-1H-pyrazolo[4,3-c]-pyridin-6-yl}urea] here?
The IC50 was 1.3 nM.

Which IC50 [1] does the source give for `CCNc1n[nH]c2cc(NC(=O)N[C@H](C)c3ccccc3)nc(C)c12` [Example 331, (R)-1-(3-(ethylamino)-4-methyl-1H-pyrazolo[4,3-c]pyridin-6-yl)-3-(1-phenylethyl)urea] here?
Its IC50 is 2.9 nM.

With `COCCNC(=O)Nc1cc2[nH]nc(N3CCCC3)c2cn1` [Example 9, 1-(2-methoxyethyl)-3-(3-pyrrolidin-1-yl-1H-pyrazolo[4,3-c]pyridin-6-yl)urea] as the compound, how does the IC50 [2] read?
The IC50 was 105 nM.

Which IC50 [2] does the source give for `C[C@@H](NC(=O)Nc1ncc2c(N)n[nH]c2c1F)c1ccccc1` [Example 59, (R)-1-(3-Amino-7-fluoro-1H-pyrazolo[4,3-c]pyridin-6-yl)-3-(1-phenylethyl)urea] here?
Its IC50 is 6.47 nM.

For `Cc1cccc(Cl)c1CNC(=O)Nc1cc2[nH]nc(N)c2cn1` [Example 266, 1-(3-amino-1H-pyrazolo[4,3-c]pyridin-6-yl)-3-(2-chloro-6-methylbenzyl)urea], which IC50 [1] is on record?
Its IC50 is 13.8 nM.

For `C[C@@H](NC(=O)Nc1cc2[nH]nc(NC3CNC3)c2cn1)c1ccccc1` [Example 168, 1-[3-(azetidin-3-ylamino)-1H-pyrazolo[4,3-c]-pyridin-6-yl]-3-[(1R)-1-phenylethyl]urea], which IC50 [1] is on record?
Its IC50 is 31.7 nM.

How did the IC50 [1] turn out when `C[C@@H](NC(=O)Nc1cc2[nH]nc(NCc3ccncc3)c2cn1)c1ccccc1` [Example 179, 1-[(1R)-1-phenylethyl]-3-{3-[(pyridin-4-yl-methyl)amino]-1H-pyrazolo[4,3-c]-pyridin-6-yl}urea] was run?
The IC50 was 1 nM.

Which IC50 [1] does the source give for `CCNc1n[nH]c2cc(NC(=O)NC(C)c3cccnc3)ncc12` (stereo not shown) [Example 283, 1-[3-(ethylamino)-1H-pyrazolo[4,3-c]pyridin-6-yl]-3-(1-pyridin-3-ylethyl)urea] here?
The IC50 was 44.4 nM.

For `COC(=O)Nc1n[nH]c2cc(NC(=O)N[C@H](C)c3ccccc3F)ncc12` [Example 305, methyl [6-({[(1R)-1-(2-fluorophenyl)-ethyl]carbamoyl}-amino)-1H-pyrazolo[4,3-c]-pyridin-3-yl]-carbamate], which IC50 [1] is on record?
The IC50 was 7.3 nM.

`Nc1n[nH]c2cc(NC(=O)NC3CNc4ccccc4C3)ncc12` (stereo not shown) [Example 256, 1-(3-amino-1H-pyrazolo[4,3-c]pyridin-6-yl)-3-(1,2,3,4-tetrahydro-quinolin-3-yl)urea] was tested. Which IC50 [1] did it give?
The IC50 was 37.5 nM.

Which IC50 [1] does the source give for `C[C@@H](NC(=O)Nc1cc2[nH]nc(NCC3CCC3)c2cn1)c1ccccc1` [Example 213, 1-{3-[(cyclobutylmethyl)amino]-1H-pyrazolo[4,3-c]-pyridin-6-yl}-3-[(1R)-1-phenylethyl]urea] here?
The IC50 was 2.2 nM.

Which IC50 [1] does the source give for `COCc1nc(NC(=O)N[C@H](C)c2ccccc2)cc2[nH]nc(N)c12` [Example 69, (R)-1-(3-amino-4-(methoxymethyl)-1H-pyrazolo[4,3-c]pyridin-6-yl)-3-(1-phenylethyl)urea] here?
The IC50 was 1.5 nM.
